The text below walks through data of patent US9212153B2, “Inhibitors of beta-secretase” (Vitae Pharmaceuticals, Inc., priority 2009, dated 2015).

The target in one assay is BACE (Homo sapiens (Human), UniProt P56817). The assay is described as follows: BACE cell assay (H4-APPsw cells, secreted Aβ 1-40 by AlphaLISA/ELISA). The format is cell-based. Particulars: in vitro cell activity. Background: Alpha assays give light when donor and acceptor beads are brought close together.
Chain of BACE (P56817 46-501 limits assumed): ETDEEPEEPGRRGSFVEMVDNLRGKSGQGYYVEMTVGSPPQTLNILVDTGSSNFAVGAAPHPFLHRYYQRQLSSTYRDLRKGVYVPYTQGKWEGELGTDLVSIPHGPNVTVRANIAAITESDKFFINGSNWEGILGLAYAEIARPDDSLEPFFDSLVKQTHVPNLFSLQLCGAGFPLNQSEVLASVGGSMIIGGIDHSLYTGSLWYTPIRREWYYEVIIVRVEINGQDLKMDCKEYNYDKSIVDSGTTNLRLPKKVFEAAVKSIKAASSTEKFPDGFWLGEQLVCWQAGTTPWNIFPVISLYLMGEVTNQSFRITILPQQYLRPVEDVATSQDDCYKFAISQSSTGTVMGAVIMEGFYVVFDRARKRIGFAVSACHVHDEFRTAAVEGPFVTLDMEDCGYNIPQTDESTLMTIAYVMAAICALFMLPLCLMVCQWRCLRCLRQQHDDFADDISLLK
Protocol: H4 neuroglioma cell line that stably expresses Amyloid Precursor Protein (APP) containing the KM-NL Swedish mutation (H4-APPsw) was generated. For the assay, cells are treated overnight in the presence of inhibitor and the culture media are subjected to ELISA analysis of soluble Amyloid Beta 1-40 (Aβ 1-40).
H4 neuroglioma cell line was cultured in DMEM with 10% FBS and 1% penicillin/streptomycin (Culture Medium) at 37° C., 5% CO2. […] 24 hrs after transfection, the cells were replaced into three new plates (150 mm) in fresh Culture Medium with 250 ug/mL Zeocin. […] The levels of APPsw expression were analyzed by immunoblotting and the production of Aβ 1-40 was detected by ELISA of culture supernatants. The selected clones are maintained in Culture Medium with 250 μg/mL Zeocin and routinely split in 3-4 days to maintain 20-80% confluence.
Final Assay Conditions (96-Well Plate)
Day 1 Split Cells. Split H4-APPsw cells in Culture Medium and culture overnight such that cells will be ˜80% confluent next morning. Day 2 Create Compound Dilution Plate. After determining the desired final concentration of compound to be tested, create a 500× dilution plate. Add DMSO, but not inhibitor, to each well of Column 1. […] Add compounds of interest at 500× desired final concentration to wells A3-A10. Add DMSO, but not inhibitor, to each well of Columns 11 and 12. Dilute contents of Row A 1:3 in Row B, then continue through Rows C-H. Create Media Plate. To create a 2× solution of compound in media, add 996 μL Culture Medium to each well of a 96-well 2 mL deep well plate (Media Plate) in biosafety hood. Add 4 μL 5 mM control compound to Media Plate wells A1-D1 for determination of full inhibition. […] Add Media to Cell Plate. With a multichannel pipettor, mix each well of Media Plate several times to insure homogeneity. […] Next, place Medium Plate and Cell Plate in the incubator. Add cells to Cell Plate. Trypsinize and count H4-APPsw cells. […]
After 16 h incubation, spin Cell Plate for 8 min at 1200 rpm. The primary reading of Aβ 1-40 levels is done using PerkinElmer AlphaLISA technology. […]
The term IC50 denotes the concentration at which inhibition is half-maximal. Regarding `COC1CCC2(CC1)Cc1ccc(C#CC3CC3)cc1C21C=C(N)N(C)O1` (stereo not drawn) [Compound 3], the IC50 is below 100 nM.

As for `CN1OC2(C=C1N)c1cc(-c3cccc(C#N)c3)ccc1CC21CCCc2ccccc2C1` (stereo not drawn) [Compound 46], the IC50 is below 10000 nM.

`CCOC1(F)CCC2(CC1)Cc1ccc(-c3cccc(C#N)c3)cc1C21N=C(N)N(C)O1` (stereo not drawn) [compound 49] had a 50% inhibitory concentration (IC50) below 1000 nM.

The target of another assay is truncated human beta-secretase (residues 1-458, His6-tagged at the C-terminus) (Homo sapiens (Human), UniProt P56817). As to the kind of experiment: BACE enzyme assay (fluorescence quench, Example 434A). The format is biochemical.
Chain of truncated human beta-secretase (residues 1-458, His6-tagged at the C-terminus) (P56817 22-458): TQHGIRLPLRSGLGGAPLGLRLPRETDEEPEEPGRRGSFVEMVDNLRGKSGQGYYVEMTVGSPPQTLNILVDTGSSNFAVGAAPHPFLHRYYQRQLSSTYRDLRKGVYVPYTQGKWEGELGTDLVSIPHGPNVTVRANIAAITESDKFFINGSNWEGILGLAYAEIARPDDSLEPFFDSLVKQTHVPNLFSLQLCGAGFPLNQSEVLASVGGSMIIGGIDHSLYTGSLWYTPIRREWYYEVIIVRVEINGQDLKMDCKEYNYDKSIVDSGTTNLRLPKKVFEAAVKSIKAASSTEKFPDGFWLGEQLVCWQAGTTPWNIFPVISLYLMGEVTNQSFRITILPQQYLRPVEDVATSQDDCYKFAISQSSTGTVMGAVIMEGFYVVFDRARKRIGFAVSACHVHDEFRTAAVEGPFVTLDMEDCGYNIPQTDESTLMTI
Conditions: not given
`COC1CCC2(CC1)Cc1ccc(-c3cccnn3)cc1C21N=C(N)N(C)O1` (stereo not drawn) [Compound 107] had a 50% inhibitory concentration (IC50) of 228 nM.

Molecule `CN1OC2(N=C1N)c1cc(Br)ccc1C[C@@]21C[C@@H]1c1ccccc1` (stereo partly drawn) [Compound 460] registered an IC50 of 9810 nM.

The assay is the same for the next values; noted with them: footnote a: determined according to protocols described in Example 434A.
The molecule `COC1CCC2(CC1)Cc1ccc(C#CC3CC3)cc1C21C=C(N)N(C)O1` (stereo not drawn) [Compound 3] returned an IC50 of 4.5 nM.

`CN1OC2(C=C1N)c1cc(-c3cccc(C#N)c3)ccc1CC21CCCc2ccccc2C1` (stereo not drawn) [Compound 46] came in with an IC50 of 293 nM.

`CN1OC2(N=C1N)c1cc(Br)ccc1CC21CCc2ccccc2CC1` (stereo not drawn) [Compound 67] gave an IC50 of 138 nM.

With `CN1OC2(N=C1N)c1cc(-c3cccc(C#N)c3)ccc1CC21CCS(=O)(=O)CC1` (stereo not drawn) [Compound 459], the 50% inhibitory concentration (IC50) came to 693 nM.

Turning to `Cc1onc2c1CC1(CC2)Cc2ccc(Br)cc2C12N=C(N)N(C)C2=O` (stereo not drawn) [Compound 461], the IC50 came out at 16.7 nM.

For `CN1C(=O)C2(N=C1N)c1cc(-c3cccc(C#N)c3)ccc1CC21Cc2cnncc2C1` (stereo not drawn) [Compound 471], the midpoint of inhibition, the IC50, lay at 870 nM.

Turning to `COC1CCC2(CC1)Cc1ccc(C3=CC(O)CC3)cc1C21N=C(N)N(C)C1=O` (stereo not drawn) [Compound 476], the “IC50 (nM)” value amounted to 33. l^a.
